# Molecular target: T1, Motilin Receptor (Oryctolagus cuniculus, UniProt G1T803)
# T1 construct: The muscle tissue was homogenized in 10 volumes of 50 mM Tris-Cl; from tissue; host or cells: rabbit colon smooth muscle, crude membrane homogenate
# Test: Motilin receptor binding, rabbit colon membranes, 125I porcine motilin
# Parameters: Rabbit Colon % Inh / inhibition / % Inh (Rabbit colon): dose or concentration left out as unconfirmed
# Settings: not given
# Method: Rabbit colon was removed, dissected free from the mucosa and serosa, and diced into small pieces. The muscle tissue was homogenized in 10 volumes of 50 mM Tris-Cl, 10 mM MgCl2, 0.1 mg/ml bacitracin, and 0.25 mM Peflabloc, at pH 7.5 in a Polytron (29000 rpm, 4×15 seconds). The homogenate was centrifuged at 1000×g for 15 minutes and the supernatant discarded. The pellet was washed twice before being suspended in homogenizing buffer. The crude homogenate was resuspended through a 23 gauge needle before storing at −80° C. […] After 60 minutes at 30° C., the samples were cooled in ice, centrifuged in the cold at 13000×g for 1 minute. The pellet was washed twice with 1 ml of cold saline, the supernatant was aspirated, and the pellet at the bottom of the tube counted in a gamma counter. Non-specific binding was determined by the inclusion of 1 mM of unlabeled motilin. IC50 values were determined from Kaleidograph curves.
# T1 sequence (G1T803 1-400): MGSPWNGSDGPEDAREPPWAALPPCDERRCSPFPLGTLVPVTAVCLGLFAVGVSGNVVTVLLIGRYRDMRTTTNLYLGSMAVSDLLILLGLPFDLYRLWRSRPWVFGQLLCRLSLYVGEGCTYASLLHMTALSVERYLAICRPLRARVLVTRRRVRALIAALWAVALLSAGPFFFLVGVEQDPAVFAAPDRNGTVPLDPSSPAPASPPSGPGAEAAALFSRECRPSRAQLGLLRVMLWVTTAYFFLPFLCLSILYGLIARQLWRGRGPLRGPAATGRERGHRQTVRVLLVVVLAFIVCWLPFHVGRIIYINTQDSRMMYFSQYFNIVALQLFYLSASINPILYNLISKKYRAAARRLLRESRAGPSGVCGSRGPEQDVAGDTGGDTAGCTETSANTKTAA
row,IC50 [µM],SMILES
1,0.69,O=C(CCCN(C(=O)c1ccc(F)cc1)c1cccc(OCCN2CCOCC2)c1)N(CCc1ccccc1)Cc1ccccc1 [compound 4]

# Same assay, conditions: rabbit colon membranes
row,SMILES,Rabbit Colon % Inh [%]
1,Cc1ccc(S(=O)(=O)N(CCCC(=O)N(CCc2ccccc2)Cc2ccccc2)c2cccc(OCCN3CCOCC3)c2)cc1 [compound 2],9
2,Cc1ccc(C(=O)N(CCCC(=O)N(CCc2ccccc2)Cc2ccccc2)c2cccc(OCCN3CCOCC3)c2)cc1 [compound 3],35
3,O=C(CCCCN(C(=O)Nc1ccccc1)c1cccc(OCCN2CCOCC2)c1)N(CCc1ccccc1)Cc1ccccc1 [compound 5],40
4,Cc1ccc(C(=O)N(CCCCC(=O)N(CCc2ccccc2)Cc2ccccc2)c2cccc(OCCN3CCOCC3)c2)cc1 [compound 6],24
5,O=C(CCCCN(C(=O)c1ccc(F)cc1)c1cccc(OCCN2CCOCC2)c1)N(CCc1ccccc1)Cc1ccccc1 [compound 7],42
6,CCN(Cc1ccccc1)C(=O)CCCN(C(=O)Nc1ccccc1)c1cccc(OCCN2CCOCC2)c1 [compound 8],18
7,CCN(Cc1ccccc1)C(=O)CCCN(c1cccc(OCCN2CCOCC2)c1)S(=O)(=O)c1ccc(C)cc1 [compound 9],27
8,CCN(Cc1ccccc1)C(=O)CCCN(C(=O)c1ccc(C)cc1)c1cccc(OCCN2CCOCC2)c1 [compound 10],29
9,CCN(Cc1ccccc1)C(=O)CCCN(C(=O)c1ccc(F)cc1)c1cccc(OCCN2CCOCC2)c1 [compound 11],0
10,CCN(Cc1ccccc1)C(=O)CCCCN(c1cccc(OCCN2CCOCC2)c1)S(=O)(=O)c1ccc(C)cc1 [compound 12],4
11,CCN(Cc1ccccc1)C(=O)CCCCN(C(=O)c1ccc(C)cc1)c1cccc(OCCN2CCOCC2)c1 [compound 13],21
12,CCN(Cc1ccccc1)C(=O)CCCCN(C(=O)c1ccc(F)cc1)c1cccc(OCCN2CCOCC2)c1 [compound 14],25
13,CN(Cc1ccccc1)C(=O)CCCN(C(=O)Nc1ccccc1)c1cccc(OCCN2CCOCC2)c1 [compound 15],21
14,Cc1ccc(S(=O)(=O)N(CCCC(=O)N(C)Cc2ccccc2)c2cccc(OCCN3CCOCC3)c2)cc1 [compound 16],21
15,Cc1ccc(C(=O)N(CCCC(=O)N(C)Cc2ccccc2)c2cccc(OCCN3CCOCC3)c2)cc1 [compound 17],12
16,CN(Cc1ccccc1)C(=O)CCCN(C(=O)c1ccc(F)cc1)c1cccc(OCCN2CCOCC2)c1 [compound 18],0
17,CN(Cc1ccccc1)C(=O)CCCCN(C(=O)Nc1ccccc1)c1cccc(OCCN2CCOCC2)c1 [compound 19],5
18,Cc1ccc(S(=O)(=O)N(CCCCC(=O)N(C)Cc2ccccc2)c2cccc(OCCN3CCOCC3)c2)cc1 [compound 20],8
19,Cc1ccc(C(=O)N(CCCCC(=O)N(C)Cc2ccccc2)c2cccc(OCCN3CCOCC3)c2)cc1 [compound 21],34
20,CN(Cc1ccccc1)C(=O)CCCCN(C(=O)c1ccc(F)cc1)c1cccc(OCCN2CCOCC2)c1 [compound 22],23
21,O=C(CCCN(C(=O)Nc1ccccc1)c1cccc(OCCN2CCOCC2)c1)N(Cc1ccccc1)Cc1ccccc1 [compound 23],48
22,Cc1ccc(S(=O)(=O)N(CCCC(=O)N(Cc2ccccc2)Cc2ccccc2)c2cccc(OCCN3CCOCC3)c2)cc1 [compound 24],6
23,Cc1ccc(C(=O)N(CCCC(=O)N(Cc2ccccc2)Cc2ccccc2)c2cccc(OCCN3CCOCC3)c2)cc1 [compound 25],23
24,O=C(CCCCN(C(=O)Nc1ccccc1)c1cccc(OCCN2CCOCC2)c1)N(Cc1ccccc1)Cc1ccccc1 [compound 26],22
25,Cc1ccc(S(=O)(=O)N(CCCCC(=O)N(Cc2ccccc2)Cc2ccccc2)c2cccc(OCCN3CCOCC3)c2)cc1 [compound 27],22
26,Cc1ccc(C(=O)N(CCCCC(=O)N(Cc2ccccc2)Cc2ccccc2)c2cccc(OCCN3CCOCC3)c2)cc1 [compound 28],13
27,O=C(CCCCN(C(=O)c1ccc(F)cc1)c1cccc(OCCN2CCOCC2)c1)N(Cc1ccccc1)Cc1ccccc1 [compound 29],18

# The next lines start with the values.
row,Rabbit Colon % Inh [%],SMILES
1,62,CN(CCOc1cccc(N(CC2CCCC(N(Cc3cccc(Cl)c3)C(=O)C(C)(C)C)C2)C(=O)c2ccc(F)cc2)c1)Cc1ccccc1 (racemic) [compound 232]
2,61,CN1CCCC1CCOc1cccc(N(CC2CCCC(N(Cc3cccc(Cl)c3)C(=O)C(C)(C)C)C2)C(=O)c2ccc(F)cc2)c1 (racemic) [compound 235]
3,53,CN1CCCC1CCOc1cccc(N(CC2CCCC(N(Cc3cccc(Cl)c3)C(=O)C(Cl)(Cl)Cl)C2)C(=O)c2ccc(F)cc2)c1 (racemic) [compound 236]
4,17,CCN(Cc1ccc(C)cc1)C(=O)CCCN(C(=O)Nc1ccccc1)c1cccc(OCCN2CCOCC2)c1 [compound 30]
5,39,CCN(Cc1ccc(C)cc1)C(=O)CCCN(c1cccc(OCCN2CCOCC2)c1)S(=O)(=O)c1ccc(C)cc1 [compound 31]
6,12,CCN(Cc1ccc(C)cc1)C(=O)CCCN(C(=O)c1ccc(C)cc1)c1cccc(OCCN2CCOCC2)c1 [compound 32]
7,16,CCN(Cc1ccc(C)cc1)C(=O)CCCN(C(=O)c1ccc(F)cc1)c1cccc(OCCN2CCOCC2)c1 [compound 33]
8,7,CCN(Cc1ccc(C)cc1)C(=O)CCCCN(C(=O)Nc1ccccc1)c1cccc(OCCN2CCOCC2)c1 [compound 34]
9,17,CCN(Cc1ccc(C)cc1)C(=O)CCCCN(c1cccc(OCCN2CCOCC2)c1)S(=O)(=O)c1ccc(C)cc1 [compound 35]
10,32,CCN(Cc1ccc(C)cc1)C(=O)CCCCN(C(=O)c1ccc(C)cc1)c1cccc(OCCN2CCOCC2)c1 [compound 36]
11,11,CCN(Cc1ccc(C)cc1)C(=O)CCCCN(C(=O)c1ccc(F)cc1)c1cccc(OCCN2CCOCC2)c1 [compound 37]
12,58,COc1cccc(C(=O)N(Cc2ccccc2)C2CCCC(CN(C(=O)Nc3ccccc3)c3cccc(OCCN4CCOCC4)c3)C2)c1 (centres unmarked) [compound 41]
13,50,CC(C)(C)C(=O)N(Cc1ccccc1)C1CCCC(CN(C(=O)Nc2ccccc2)c2cccc(OCCN3CCOCC3)c2)C1 (centres unmarked) [compound 42]
14,4,O=C(Nc1ccccc1)N(CC1CCCC(N(Cc2ccccc2)C(=O)c2ccc3ccccc3c2)C1)c1cccc(OCCN2CCOCC2)c1 (centres unmarked) [compound 44]
15,32,O=C(Nc1ccccc1)N(CC1CCCC(N(Cc2ccccc2)C(=O)C(c2ccccc2)c2ccccc2)C1)c1cccc(OCCN2CCOCC2)c1 (centres unmarked) [compound 46]
16,23,O=C(Nc1ccccc1)N(CC1CCCC(N(Cc2cccc(Cl)c2)C(=O)C(Cl)(Cl)Cl)C1)c1cccc(OCCN2CCOCC2)c1 (centres unmarked) [compound 47]
17,37,O=C(Nc1ccccc1)N(CC1CCCC(N(Cc2cccc(Cl)c2)C(=O)c2cc(C(F)(F)F)cc(C(F)(F)F)c2)C1)c1cccc(OCCN2CCOCC2)c1 (centres unmarked) [compound 49]
18,32,O=C(Nc1ccccc1)N(CC1CCCC(N(Cc2cccc(Cl)c2)C(=O)c2ccc(-c3ccccc3)cc2)C1)c1cccc(OCCN2CCOCC2)c1 (centres unmarked) [compound 50]
19,73,COc1cccc(C(=O)N(Cc2cccc(Cl)c2)C2CCCC(CN(C(=O)Nc3ccccc3)c3cccc(OCCN4CCOCC4)c3)C2)c1 (centres unmarked) [compound 51]
20,45,CC(C)(C)C(=O)N(Cc1cccc(Cl)c1)C1CCCC(CN(C(=O)Nc2ccccc2)c2cccc(OCCN3CCOCC3)c2)C1 (centres unmarked) [compound 52]
21,52,O=C(Nc1ccccc1)N(CC1CCCC(N(Cc2cccc(Cl)c2)C(=O)CCc2ccccc2)C1)c1cccc(OCCN2CCOCC2)c1 (centres unmarked) [compound 53]
22,42,O=C(Nc1ccccc1)N(CC1CCCC(N(Cc2cccc(Cl)c2)C(=O)c2ccc3ccccc3c2)C1)c1cccc(OCCN2CCOCC2)c1 (centres unmarked) [compound 54]

# Same assay, conditions: rabbit colon membranes; read-out: Rabbit Colon % Inh
row,inhibition [%],SMILES
1,35,O=C(CCCN(C(=O)Nc1ccccc1)c1cccc(OCCN2CCOCC2)c1)N(CCc1ccccc1)Cc1ccccc1 [compound 1]
2,4,O=C(Nc1ccccc1)N(c1cccc(OCCN2CCOCC2)c1)C1CCC(CN(Cc2cccc(Cl)c2)C(=O)C(Cl)(Cl)Cl)C1 (centres unmarked) [compound 39]
3,11,O=C(Nc1ccccc1)N(CC1CCCC(N(Cc2ccccc2)C(=O)Nc2ccccc2)C1)c1cccc(OCCN2CCOCC2)c1 (centres unmarked) [compound 40]
4,74,O=C(Nc1ccccc1)N(CC1CCCC(N(Cc2ccccc2)C(=O)CCc2ccccc2)C1)c1cccc(OCCN2CCOCC2)c1 (centres unmarked) [compound 43]
5,67,O=C(Nc1ccccc1)N(CC1CCCC(N(Cc2ccccc2)C(=O)c2cccc([N+](=O)[O-])c2)C1)c1cccc(OCCN2CCOCC2)c1 (centres unmarked) [compound 45]
6,67,O=C(Nc1ccccc1)N(CC1CCCC(N(Cc2ccccc2)C(=O)c2ccco2)C1)c1cccc(OCCN2CCOCC2)c1 (centres unmarked) [compound 48]

# Same assay, conditions: rabbit colon membranes; read-out: Rabbit Colon IC50
row,IC50 [µM],SMILES
1,0.073,O=C(c1ccc(F)cc1)N(C[C@H]1CCC[C@@H](N(Cc2cccc(Cl)c2)C(=O)C(Cl)(Cl)Cl)C1)c1cccc(OCCN2CCCCC2)c1 [ID 239]
2,0.73,O=C(Nc1ccccc1)N(CC1CCCC(N(Cc2ccccc2)C(=O)CCc2ccccc2)C1)c1cccc(OCCN2CCOCC2)c1 (centres unmarked) [compound 43]
3,1.16,O=C(Nc1ccccc1)N(CC1CCCC(N(Cc2ccccc2)C(=O)c2cccc([N+](=O)[O-])c2)C1)c1cccc(OCCN2CCOCC2)c1 (centres unmarked) [compound 45]
4,0.656,O=C(Nc1ccccc1)N(CC1CCCC(N(Cc2ccccc2)C(=O)c2ccco2)C1)c1cccc(OCCN2CCOCC2)c1 (centres unmarked) [compound 48]
5,0.65,COc1cccc(C(=O)N(Cc2cccc(Cl)c2)C2CCCC(CN(C(=O)Nc3ccccc3)c3cccc(OCCN4CCOCC4)c3)C2)c1 (centres unmarked) [compound 51]

# Same assay, conditions: read-out: Rabbit Colon % Inh
row,inhibition [%],SMILES
1,75,O=C(CCCN(C(=O)c1ccc(F)cc1)c1cccc(OCCN2CCOCC2)c1)N(CCc1ccccc1)Cc1ccccc1 [compound 4]

# Reference: patent publication US7112586B2, “Substituted diamine derivatives useful as motilin antagonists” (Ortho-McNeil Pharmaceutical, Inc., priority 2000, dated 2006)
